This is an account of results in the NIST ThermoML archive (doi:10.1016/j.jct.2013.04.021).

± gives the expanded uncertainty stated by the source.

The conditions of the data set: 298.15 K, 101.33 kPa, Liquid; for viscosity: Capillary tube (Ostwald / Ubbelohde) method; for speed of sound: Sing-around technique in a fixed-path interferometer; for mass density: Vibrating tube method.

The viscosity is the resistance of a fluid to flow. As a reminder, the speed of sound is the propagation velocity of pressure waves in the medium. By mass density is commonly meant mass per unit of volume. With `CCCCOCCO` [2-butoxyethan-1-ol], the viscosity was 2.885 ± 0.063 mPa·s, the speed of sound is reported as 1306 ± 1.6 m/s and the mass density came out at 896.312 ± 0.24 kg/m3.

For `CCCCCCCCCCO` [decan-1-ol], the viscosity amounted to 11.81 ± 0.28 mPa·s, the speed of sound stood at 1379.4 ± 1.6 m/s and the mass density came to 826.489 ± 0.24 kg/m3.

Regarding `CCCCCCO` [hexan-1-ol], the viscosity is listed as 4.623 ± 0.1 mPa·s, the speed of sound was determined as 1303.5 ± 1.6 m/s and the mass density is 815.652 ± 0.24 kg/m3.

`CCCCCCCCO` [octan-1-ol]: the viscosity was 7.68 ± 0.17 mPa·s, the speed of sound worked out at 1347.3 ± 1.6 m/s and the mass density is recorded as 821.877 ± 0.24 kg/m3.
